From PubChem BioAssay AID1963964 (Molecular Pharmacology Branch, DTP, NCI, 2024)

Tested on: 997726-040-R-J2-PDC tumor spheroids, viability
Experiment: Anticancer human tumor 997726-040-R-J2-PDC patient-derived squamous cell lung carcinoma cell line growth inhibition [PI3K]
Conditions: spheroids with HUVEC and MSC; for viability, T/C: stronger effect = lower value
How it was run: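 Complex 3D spheroids (cancer cells + endothelial HUVEC + mesenchymal stem cells); drug pairs of targeted agent x inavolisib/alpelisib/duvelisib/copanlisib; half-log series from ~Cmax, max 10 microM if Cmax unknown; endpoint viability.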

[1] = curve of first compound, second compound 0.00316 µM
[2] = curve of first compound, second compound 0.01 µM
[3] = curve of first compound, second compound 0.0316 µM
[4] = curve of first compound, second compound 0.1 µM
[5] = curve of first compound, second compound 0.316 µM
[6] = curve of first compound, second compound 1 µM
[7] = second compound 0.00316 µM, first compound 0.0316 µM
[8] = second compound 0.00316 µM, first compound 0.1 µM
[9] = second compound 0.01 µM, first compound 0.0316 µM
[10] = second compound 0.01 µM, first compound 0.1 µM
[11] = second compound 0.0316 µM, first compound 0.0316 µM
[12] = second compound 0.0316 µM, first compound 0.1 µM
[13] = second compound 0.1 µM, first compound 0.0316 µM
[14] = second compound 0.1 µM, first compound 0.1 µM
[15] = second compound 0.316 µM, first compound 0.0316 µM
[16] = second compound 0.316 µM, first compound 0.1 µM
[17] = second compound 1 µM, first compound 0.0316 µM
[18] = second compound 1 µM, first compound 0.1 µM
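Note: spheroids exposed to compounds for seven days before readout.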

Cn1ncnc1[C@H]1c2n[nH]c(=O)c3cc(F)cc(c23)N[C@@H]1c1ccc(F)cc1 + CC(Nc1ccc2c(c1)OCCn1cc(N3C(=O)OCC3C(F)F)nc1-2)C(N)=O
IC50 [1]: > 100 nM
IC50 [2]: > 100 nM
IC50 [3]: > 100 nM
IC50 [4]: < 0.316 nM
IC50 [5]: < 0.316 nM
IC50 [6]: < 0.316 nM
viability, T/C (second compound 0.00316 µM, first compound 0.000316 µM): 84.4%
viability, T/C (second compound 0.00316 µM, first compound 0.001 µM): 99.1%
viability, T/C (second compound 0.00316 µM, first compound 0.00316 µM): 95.7%
viability, T/C (second compound 0.00316 µM, first compound 0.01 µM): 87.5%
viability, T/C [7]: 99.7%
viability, T/C [8]: 89.7%
viability, T/C (second compound 0.01 µM, first compound 0.000316 µM): 89.6%
viability, T/C (second compound 0.01 µM, first compound 0.001 µM): 92.4%
viability, T/C (second compound 0.01 µM, first compound 0.00316 µM): 75.9%
viability, T/C (second compound 0.01 µM, first compound 0.01 µM): 71.4%
viability, T/C [9]: 84.3%
viability, T/C [10]: 75.6%
viability, T/C (second compound 0.0316 µM, first compound 0.000316 µM): 63.2%
viability, T/C (second compound 0.0316 µM, first compound 0.001 µM): 72.9%
viability, T/C (second compound 0.0316 µM, first compound 0.00316 µM): 66.2%
viability, T/C (second compound 0.0316 µM, first compound 0.01 µM): 71.5%
viability, T/C [11]: 70.2%
viability, T/C [12]: 60.2%
viability, T/C (second compound 0.1 µM, first compound 0.000316 µM): 49.4%
viability, T/C (second compound 0.1 µM, first compound 0.001 µM): 39.8%
viability, T/C (second compound 0.1 µM, first compound 0.00316 µM): 43.6%
viability, T/C (second compound 0.1 µM, first compound 0.01 µM): 45.4%
viability, T/C [13]: 41.8%
viability, T/C [14]: 39%
viability, T/C (second compound 0.316 µM, first compound 0.000316 µM): 31.2%
viability, T/C (second compound 0.316 µM, first compound 0.001 µM): 36%
viability, T/C (second compound 0.316 µM, first compound 0.00316 µM): 32.4%
viability, T/C (second compound 0.316 µM, first compound 0.01 µM): 32.4%
viability, T/C [15]: 33.4%
viability, T/C [16]: 30.9%
viability, T/C (second compound 1 µM, first compound 0.000316 µM): 27.5%
viability, T/C (second compound 1 µM, first compound 0.001 µM): 26.7%
viability, T/C (second compound 1 µM, first compound 0.00316 µM): 26.6%
viability, T/C (second compound 1 µM, first compound 0.01 µM): 28.9%
viability, T/C [17]: 31.1%
viability, T/C [18]: 28.8%

Cn1nccc1Nc1nccc(-c2ccn(C(CO)c3ccc(Cl)c(F)c3)c(=O)c2)n1 (stereo unspecified) + CC(Nc1ccc2c(c1)OCCn1cc(N3C(=O)OCC3C(F)F)nc1-2)C(N)=O
IC50 [1]: > 10000 nM
IC50 [2]: 4670 nM
IC50 [3]: 601 nM
IC50 [4]: < 31.6 nM
IC50 [5]: < 31.6 nM
IC50 [6]: < 31.6 nM
viability, T/C [7]: 93%
viability, T/C [8]: 75.4%
viability, T/C (second compound 0.00316 µM, first compound 0.316 µM): 63.5%
viability, T/C (second compound 0.00316 µM, first compound 1 µM): 64.3%
viability, T/C (second compound 0.00316 µM, first compound 3.16 µM): 55.9%
viability, T/C (second compound 0.00316 µM, first compound 10 µM): 49.4%
viability, T/C [9]: 74.5%
viability, T/C [10]: 72.6%
viability, T/C (second compound 0.01 µM, first compound 0.316 µM): 70.2%
viability, T/C (second compound 0.01 µM, first compound 1 µM): 58.9%
viability, T/C (second compound 0.01 µM, first compound 3.16 µM): 58.7%
viability, T/C (second compound 0.01 µM, first compound 10 µM): 39.6%
viability, T/C [11]: 65.2%
viability, T/C [12]: 57.5%
viability, T/C (second compound 0.0316 µM, first compound 0.316 µM): 52%
viability, T/C (second compound 0.0316 µM, first compound 1 µM): 47.3%
viability, T/C (second compound 0.0316 µM, first compound 3.16 µM): 43.9%
viability, T/C (second compound 0.0316 µM, first compound 10 µM): 31.8%
viability, T/C [13]: 44.6%
viability, T/C [14]: 39.5%
viability, T/C (second compound 0.1 µM, first compound 0.316 µM): 34.8%
viability, T/C (second compound 0.1 µM, first compound 1 µM): 32%
viability, T/C (second compound 0.1 µM, first compound 3.16 µM): 33.5%
viability, T/C (second compound 0.1 µM, first compound 10 µM): 23.6%
viability, T/C [15]: 35.5%
viability, T/C [16]: 34.4%
viability, T/C (second compound 0.316 µM, first compound 0.316 µM): 30%
viability, T/C (second compound 0.316 µM, first compound 1 µM): 31%
viability, T/C (second compound 0.316 µM, first compound 3.16 µM): 27.9%
viability, T/C (second compound 0.316 µM, first compound 10 µM): 20%
viability, T/C [17]: 25.7%
viability, T/C [18]: 27.5%
viability, T/C (second compound 1 µM, first compound 0.316 µM): 23%
viability, T/C (second compound 1 µM, first compound 1 µM): 27%
viability, T/C (second compound 1 µM, first compound 3.16 µM): 25.1%
viability, T/C (second compound 1 µM, first compound 10 µM): 19.1%

Cn1ncnc1[C@H]1c2n[nH]c(=O)c3cc(F)cc(c23)N[C@@H]1c1ccc(F)cc1
viability, T/C (compound 0.000316 µM): 98.9% [middle of 4 runs]
viability, T/C (compound 0.001 µM): 99.5% [middle of 4 runs]
viability, T/C (compound 0.00316 µM): 96.6% [middle of 4 runs]
viability, T/C (compound 0.01 µM): 98.5% [middle of 4 runs]
viability, T/C (compound 0.0316 µM): 116% [middle of 4 runs]
viability, T/C (compound 0.1 µM): 102% [middle of 4 runs]
IC50 (curve of compound): > 100 nM
